Structures are written as SMILES. Where a name gives a salt, the structure may show the parent alone.

This test deals with adenosine A2a receptor (Homo sapiens, UniProt P29274). In words: adenosine A2a receptor agonist method of Murphree et al (Ki). The settings on record: method described by L. J. Murphree et al, Molecular Pharmacology 61, 455-462 (2002). The test is classed as binding. On the procedure:
Compounds of formula I and their pharmaceutically acceptable salts are useful as pharmaceuticals. In particular, they activate the adenosine A2a receptor activation, i.e. they act as A2a receptor agonists.
Compounds of the Examples hereinbelow have K; values below 1.0 μM in the above method. For example, the compounds of Examples 6, 10 and 15 have Ki values of 0.004, 0.005, and 0.009 μM respectively.

Sequence of adenosine A2a receptor (P29274 whole entry): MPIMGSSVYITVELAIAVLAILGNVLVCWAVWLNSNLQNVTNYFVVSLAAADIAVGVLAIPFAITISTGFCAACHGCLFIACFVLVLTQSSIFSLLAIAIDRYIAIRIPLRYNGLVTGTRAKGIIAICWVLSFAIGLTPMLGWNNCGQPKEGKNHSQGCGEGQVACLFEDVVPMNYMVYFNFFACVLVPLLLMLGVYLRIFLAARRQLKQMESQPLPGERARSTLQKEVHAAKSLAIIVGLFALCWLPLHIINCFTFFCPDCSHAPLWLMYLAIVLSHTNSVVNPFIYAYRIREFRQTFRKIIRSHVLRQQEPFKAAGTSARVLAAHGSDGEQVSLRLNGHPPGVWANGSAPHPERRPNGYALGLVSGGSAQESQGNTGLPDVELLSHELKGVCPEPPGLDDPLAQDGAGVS

As a reminder, the Ki is a dissociation constant, usually derived from enzyme kinetics or from competition with a known ligand. As for `O=C(N[C@H]1C[C@@H](n2cnc3c(NCC(c4ccccc4)c4ccccc4)nc(N[C@H]4CCNC4)nc32)[C@H](O)[C@@H]1O)C1CCC1` [Example 6, Cyclobutanecarboxylic acid {(1S,2R,3S,4R)-4-[6-(2,2-diphenyl-ethylamino)-2-((S)-pyrrolidin-3-ylamino)-purin-9-yl]-2,3-dihydroxy-cyclopentyl}-amide hydrochloride], affinity was put at a Ki of 4 nM. The same measure for `O=C(Nc1cccnc1)NC1CCN(c2nc(NCC(c3ccccc3)c3ccccc3)c3ncn(C4CC(NC(=O)C5CCC5)C(O)C4O)c3n2)C1` [Example 10, Cyclobutanecarboxylic acid ((1S,2R,3S,4R)-4-{6-(2,2-diphenyl-ethylamino)-2-[(R)-3-(3-pyridin-3-yl-ureido)-pyrrolidin-1-yl]-purin-9-y}-2,3-dihydroxy-cyclopentyl)-amide]: 5 nM. Under `O=C(N[C@H]1C[C@@H](n2cnc3c(NCC(c4ccccc4)c4ccccc4)nc(N[C@@H]4CCN(C(=O)NC5CCN(c6ccccn6)CC5)C4)nc32)[C@H](O)[C@@H]1O)C1CCC1` [Example 15, (R)-3-[9-[(1R,2S,3R,4S)-4-(cyclobutanecarbonyl-amino)-2,3-dihydroxy-cyclopentyl]-6-(2,2-diphenyl-ethylamino)-9H-purin-2-ylamino]-pyrrolidine-1-carboxylic acid (3,4,5,6-tetrahydro-2H-[1,2′]bipyridinyl-4-yl)-amide trifluoroacetate] stands 9 nM.

For the origin of these results see US20090281127A1, “Organic Compounds” (priority 2006, published 2009).
